“Also recorded” adds a separate entry of the source.
Assays:
[1] = tested on: aged wild type animals (C57/b6xSJL); assay: Morris water maze in aged wild type animals; assay type: in vivo, mice; details: 5-weeks treatment, 15 mg/Kg orally; aged (12-14-month-old) wild type animals; vs saline
Procedure: Results were compared with those obtained from age-matched negative littermates (controls). […] The MWM test was used to evaluate spatial memory as previously described (Hsiao et al., 1996; Reed et al., 2010; Ricobaraza et al., 2009). After treatments, groups of animals underwent spatial reference learning and memory testing in the MWM. The water maze was a circular pool (diameter 1.2 m) filled with water maintained at 20 °C and made opaque by the addition of non-toxic white paint. Mice were trained for three consecutive days (8 trials/day) swimming to a raised platform (visible-platform). No distal visible cues were present during this phase. The same platform location was used for all visible-platform sessions and was changed for the invisible-platform training (submerged 1 cm beneath the surface) conducted over 8 consecutive days (4 trials/day) with all visible distal cues present in this phase. […] In the probe trials the platform was removed from the pool, and the percentage of time spent in the quadrant where the platform was previously set was recorded. All trials were monitored by a camera above the center of the pool connected to a SMART-LD program (Panlab S.L., Barcelona, Spain) for subsequent analysis of escape latencies, swimming speed, path length and percent time spent in each quadrant of the pool during probe trials. […]

pTau = assay: Western blot of pTau in hippocampus of J20 mice; assay type: in vivo; details: J20 mice (22-month-old) treated for 10 weeks, normalized to total Tau
Procedure: (§1) Results were compared with those obtained from age-matched negative littermates (controls). To test the effect of the PDE5 inhibitors in cognition capacity related to aging, a second treatment was carried out using 10-12 month-old non-transgenic (wild type) mice on an inbred C57/B6xSJL genetic background.
Twenty four hours after the fear conditioning test, animals (n=5, per group) were sacrificed and the brains removed for biochemical studies. The cortex and hippocampus were dissected, homogenized, and processed as described below for subsequent western blot analysis. Under xylazine/ketamine anesthesia, animals (n=4 per group) were perfused transcardially with saline and 4% paraformaldehyde in phosphate buffer (PB). After perfusion, brains were removed, post-fixed in the same fixative solution for 1 h at room temperature and cryoprotected in 30% sucrose solution in PB overnight at 4 °C. Microtome sections ([…]) were cut coronally, collected free-floating and stored in 30% ethylene glycol, 30% glycerol, and 0.1M PB at - 20 °C until processed.
(§2) Total tissue homogenates were obtained by homogenizing the hippocampus in a cold lysis buffer with protease inhibitors (0.2 M NaCl, 0.1 M HEPES, 10% glycerol, 200 mM NaF, 2 mM Na4P2O7, 5 mM EDTA, 1 mM EGTA, 2 mM DTT, 0.5 mM PMSF, 1 mM Na3VO4, 1 mM benzamidine, 10 µg/ml leupeptin, 400 U/ml aprotinin), centrifuged at 14,000 x g 4 °C for 20 minutes and the supernatant was aliquoted and stored at -80 °C. Total protein concentrations were determined using the BioRad Bradford protein assay (BioRad Laboratories).
Protein samples were mixed with an equal volume of 2 x Laemmli sample buffer, resolved onto SDS-polyacrylamide gels and transferred to nitrocellulose membrane. […] Following two washes in PBS/Tween-20 or TBS/Tween-20 and one PBS or TBS alone, immunolabeled protein bands were detected by using HRP-conjugated anti-rabbit or anti-mouse antibody (Santa Cruz; dilution 1:5000) following an enhanced chemiluminescence system (ECL, GE Healthcare Bioscience, Buckinghamshire, UK), and autoradiographic exposure to Hyperfilm™ECL (GE Healthcare Bioscience). Quantity OneTM software v.4.6.3 (Bio-Rad) was used for quantification.

pGSK3β-Ser9 = assay: Western blot of pGSK3β-Ser9 in hippocampus of J20 mice; assay type: in vivo; details: J20 mice treated for 10 weeks, vs saline
Procedure: as §1
(§3) Twenty four hours after the fear conditioning test, animals (n=5, per group) were sacrificed and the brains removed for biochemical studies. The cortex and hippocampus were dissected, homogenized, and processed as described below for subsequent western blot analysis. […]
as §2
(§4) Protein samples were mixed with an equal volume of 2 x Laemmli sample buffer, resolved onto SDS-polyacrylamide gels and transferred to nitrocellulose membrane. […] Quantity OneTM software v.4.6.3 (Bio-Rad) was used for quantification.

PSD95 = assay: Western blot of PSD95 in hippocampus of J20 mice; assay type: in vivo; details: J20 mice treated for 10 weeks
Procedure: as §1, §3, §2, §4

AD mouse models = details: Puzzo et al., 2009; cited from earlier work
[2] = Kulkarni and Patil 2004; Forgue et al., 2006; cited from earlier work
[3] = tested on: aged wild type animals (C57/b6xSJL); assay: Fear conditioning test in aged wild type animals; assay type: in vivo, mice; details: 5-weeks treatment, 15 mg/Kg orally, aged (12-14-month-old) wild type animals, 24h and 7 days after training, vs saline
Procedure: Results were compared with those obtained from age-matched negative littermates (controls). […] After running the MWM, all the animals were trained in the fear conditioning test. The conditioning procedure was carried out in a StartFear system (Panlab S.L.) that allows recording and analysis of the signal generated by the animal movement through a high sensitivity Weight Transducer system. The analogical signal is transmitted to the FREEZING and […] software modules through the load cell unit for recording purposes and posterior analysis in terms of activity/immobility. The conditioning box is housed inside a soundproof chamber, which minimized external stimulation during the conditioning and retention tests. The box was provided with a house light that supplied dim illumination and with a floor grid through which foot shocks could be administered. On training day, the mice were placed in the conditioning chamber for 2 minutes before the onset of a tone at 2800 Hz, 85 dB (conditioned stimulus, CS), which lasted for 30 seconds. The last 2 seconds of the CS was paired with a 0.3 mA foot shock (unconditioned stimulus, US). Thirty seconds after the paired CS-US, mice were returned to their cage. […] Freezing behavior was defined as the lack of movement except for breathing for at least 2 seconds, and was analyzed to give the percentage time freezing during exposure to the chamber. […]

## CCCc1nn(C)c2c(=O)[nH]c(-c3cc(S(=O)(=O)N4CCN(C)CC4)ccc3OCC)nc12 [sildenafil]
[1]
  learning ability and memory retention in the MWM: only observed in the FC test
pTau
  pTau levels (AT8) by Western blotting: decrease in Tau pathology
pGSK3β-Ser9
  pGSK3β-Ser9 levels: significantly increased
PSD95
  expression levels of PSD95: recovered the low expression levels
AD mouse models
  effect on memory in AD mouse models: efficacious drug in improving memory
[2]
  half-life in blood serum: 3.4 h
[3]
  learning ability and memory retention in the FC test: significant enhancement of memory; also recorded: only observed in the FC test (24h after training)

## CN1CC(=O)N2[C@H](c3ccc4c(c3)OCO4)c3[nH]c4ccccc4c3C[C@@H]2C1=O [tadalafil, (6R-trans)-6-(1,3-benzodioxol-5-yl)-2,3,6,7,12,12a-hexahydro-2-methyl-pyrazino [1',2':1,6] pyrido [3,4-b]indole-1,4-dione]
[1]
  learning ability and memory retention in the MWM: improved learning ability and memory retention
pTau
  pTau levels (AT8) by Western blotting: decrease in Tau pathology
  pTau levels (PHF1) by Western blotting: more marked in tadalafil-treated mice
pTau; listed as Tadalafil
  pTau levels (AT8) by Western blotting: even more effective than sildenafil
pGSK3β-Ser9
  pGSK3β-Ser9 levels: significantly increased; also recorded: being higher the effect of tadalafil
PSD95
  expression levels of PSD95: recovered the low expression levels
AD mouse models
  effect on memory in AD mouse models: no effect was demonstrated
[2]
  half-life in blood serum: 18 h
[3]
  learning ability and memory retention in the FC test: significant enhancement of memory; also recorded: improved learning ability and memory retention
